One block for each compound: values may come before it.
Assays:
human Trk A kinase = biological target: T1, human Trk A kinase (Homo sapiens, UniProt P04629); experiment: Trk A kinase assay (Alphascreen); format: biochemical; settings: human Trk A intracellular domain, 70 μM ATP, 20 minutes, room temperature; read-out: IC50 (Trk inhibitory activity)
T1 construct: HIS; made in house; host or cells: SF9 insect cells
Experimental: Trk A kinase activity was measured for its ability to phosphorylate synthetic tyrosine residues within a generic polypeptide substrate using an Amplified Luminescent Proximity Assay (Alphascreen) technology (PerkinElmer, 549 Albany Street, Boston, Mass.).
To measure Trk A kinase activity, the intracellular domain of a HIS-tagged human Trk A kinase (amino acids 442-796 of Trk A, Swiss-Prot Primary Accession Number P04629) was expressed in SF9 cells and purified using standard nickel column chromatography. After incubation of the kinase with a biotinylated substrate and adenosine triphosphate (ATP) for 20 minutes at room temperature, the kinase reaction was stopped by the addition of 30 mM ethylenediaminetetraacetic acid (EDTA). The reaction was performed in 384 well microtitre plates and the reaction products were detected with the addition of strepavidin coated Donor Beads and phosphotyrosine-specific antibodies coated Acceptor Beads using the EnVision Multilabel Plate Reader after an overnight incubation at room temperature.

[1] = system: carrageenan-induced monoarthritis in rat; experiment: Monoarthritis induced by carrageenan, Paw Print setup (hindpaw weight distribution, "Walking pain"); format: in vivo; settings: for hindpaw weight distribution (difference in percent weight-bearing between the two hind paws), mean ±SEM: four hours after administration (five hours after carrageenan), vehicle group 39.0±2.1%, n=8
Experimental: One single injection of carrageenan directly into the rat knee joint produces symptoms peaking at 3 to 4 hours and lasting for one to two days, and which are sensitive to treatment by most anti-nociceptive drugs (Tonussi and Ferreira, Pain 1992, 48, 421-427).
Under isoflurane anesthesia, 50 μL of carrageenan (7.5 mg/mL) was injected into the left tibio-tarsal (ankle) joint from the dorsal side. This injection causes a localized inflammation increasing to a maximum between 4 h to 8 h after induction, after which it gradually decreases, and the animals display decreased weight bearing on and guarding of the limb.
The Paw Print walkway consists of a 100×10 cm path with an access point at one short end and an exit at the other, and the rats are trained to make a swift, continuous passage. The walkway has a glass floor where light is projected into one long edge via fiber optics. Projecting the light in this fashion allows for virtually complete internal reflection within the glass floor. Only where an object touches the glass, such as the placement of a rat paw, light is scattered at the point of contact and produces an illuminated print (Betts, Duckworth, Eng. Med. 1978, 7, 223-228) that is recorded by a wide-angle camera placed under the walkway. The light intensity (range 0-255) of the illumination depends on the degree of contact against the floor and increases with the applied pressure (Clarke, Physiology & Behavior 1995, 58, 415-419). The Paw Print setup is a modified version of the CatWalk introduced by Hamers, Lankhorst, van Laar, Veldhuis, Gispen (J. Neurotrauma 2001, 18, 187-201), and has a computerized gait detection algorithm extracting several parameters pertaining to the rat's gait pattern and weight-bearing.
The animals were trained to cross the walkway twice, one and two days before induction of monoarthritis. Recordings were subsequently made on the day of testing, immediately before, and three and five hours after carrageenan injection, corresponding to two and four hours after per oral administration of test compound. The following parameters were used for analysis:
Weight-bearing per paw=The total sum of maximum light intensities for all pixels in the print of one paw is multiplied by the number of pixels of the print area. A paw placement consists of a number of pixels with light intensity above a certain threshold value (80 in this study). During the time course of one paw placement, a maximum value of light intensity is recorded for each pixel.
Based on the weight-bearing results, the Paw Print algorithm chooses the median print per paw in one walkway crossing. The median weight-bearing of each paw constitutes a percentage of the sum of all four paws' median weight-bearing results. The difference in percent weight-bearing between the two hind paws is shown (“Walking pain”).
The test compounds were administered 60 min after induction of monoarthritis.
Results were analysed using 1-Way ANOVA followed by Newman-Keuls for comparison between treatment groups for data obtained at each time-point after administration. The level of significance was set at p<0.05 (SigmaStat® 2.03).

T1 sequence (P04629 442-796): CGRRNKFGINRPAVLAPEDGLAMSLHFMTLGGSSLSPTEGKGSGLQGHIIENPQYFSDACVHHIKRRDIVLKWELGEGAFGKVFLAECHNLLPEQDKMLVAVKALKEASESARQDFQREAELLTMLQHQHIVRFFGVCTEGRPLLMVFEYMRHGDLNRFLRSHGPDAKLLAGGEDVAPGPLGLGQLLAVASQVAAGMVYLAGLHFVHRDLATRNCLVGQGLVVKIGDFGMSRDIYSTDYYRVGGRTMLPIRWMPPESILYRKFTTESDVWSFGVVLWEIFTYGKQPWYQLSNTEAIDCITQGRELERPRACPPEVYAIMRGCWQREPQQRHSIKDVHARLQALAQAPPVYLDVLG

IC50 (human Trk A kinase): 611 nM
Compound: C[C@H](Nc1nc(Nc2cc(C3CC3)[nH]n2)c(Cl)cc1Cl)c1ccc(F)cc1 [(S)-3,5-Dichloro-N^2-(5-cyclopropyl-1H-pyrazol-3-yl)-N^6-(1-(4-fluoro-phenyl)ethyl)pyridine-2,6-diamine]

Compound: CC(C)Oc1cc(Nc2nc(N[C@@H](C)c3ccc(F)cn3)c(C#N)cc2F)n[nH]1 [(S)-5-Fluoro-2-(1-(5-fluoropyridin-2-yl)ethylamino)-6-(5-isopropoxy-1H-pyrazol-3-ylamino)nicotinonitrile]
hindpaw weight distribution (difference in percent weight-bearing between the two hind paws), mean ±SEM ([1]; 50 μmol/kg per oral): 24.6±4.3%
hindpaw weight distribution (difference in percent weight-bearing between the two hind paws), mean ±SEM ([1]; 100 μmol/kg per oral): 27.6±3.3%
hindpaw weight distribution (difference in percent weight-bearing between the two hind paws), mean ±SEM ([1]; 200 μmol/kg per oral): 18.4±3.2%
effect on hindpaw weight distribution vs vehicle (p<0.05) ([1]; four hours after per oral administration, all doses tested: 50, 100 and 200 μmol/kg): significantly reduced
effect on hindpaw weight distribution vs vehicle (p<0.05) ([1]; two hours after per oral administration, 50, 100 and 200 μmol/kg): not at two hours

IC50 (human Trk A kinase): 109 nM
Compound: C[C@H](Nc1nc(Nc2cc(C3CC3)[nH]n2)c(F)cc1CNC(=O)C1CCC(=O)N1)c1ccc(F)cc1 (stereo partly drawn) [N-((6-(5-Cyclopropyl-1H-pyrazol-3-ylamino)-5-fluoro-2-((S)-1-(4-fluorophenyl)ethylamino)pyridin-3-yl)methyl)-5-oxopyrrolidine-2-carboxamide]

IC50 (human Trk A kinase): 63 nM
Compound: C[C@H](Nc1ccc([N+](=O)[O-])c(Nc2cc(C3CC3)[nH]n2)n1)c1ccc(F)cc1 [(S)-N^2-(5-Cyclopropyl-1H-pyrazol-3-yl)-N^6-(1-(4-fluorophenyl)ethyl)-3-nitropyridine-2,6-diamine]
